# Source: patent US12648957B2, “Compositions and methods for the treatment of SWI-SNF mutant tumors” (The Children's Hospital of Philadelphia, priority 2019, dated 2026)
# Tests used:
# [1] = system: G401 rhabdoid tumor xenografts; assay: Intramuscular G401 rhabdoid tumor xenograft model; conditions: for median survival: vehicle 28-days
# Protocol: Xenograft Experiments. 5×10^6 G401-luc cells were injected intramuscularly into the gastrocnemius of 8 to 10-week-old female homozygous nude mice (Crl; Nu-Foxn1^Nu). […] Pumps were implanted intraperitoneally and removed with 7-days after end of drug delivery. […] Investigators were not blinded to the treatment groups.
# Bioluminescence Imaging. Mice were administered Firefly D-Luciferin (GoldBio, 1.5 mg/mouse) with intraperitoneal injections. After injection anesthesia was administered throughout the image acquisition (3% isoflurane at 1 L/min 02 flow). Bioluminescent images were taken 10 minutes after injection using the AMI-1000 imaging system.
# Tissue Staining and Immunohistochemistry. Tissues were decalcified in 10% EDTA (pH 8.0) for 7-days prior to paraffin embedding. Paraffin embedded tissue was sectioned into 5-micrometer sections and mounted on colormark plus charged slides. Hematoxylin and Eosin staining was performed on the Ventana Symphony instrument. For immunohistochemistry, antigen retrieval was performed on the PT Link platform on the Dako Autostainer Plus instrument. Following blocking, tissue was incubated with H3K27me3 antibody (Abcam 1:250) or Cleaved Caspase-3 (Cell Signaling Antibody 1:250), washed and then secondary antibody (Envision+System HRP labelled polymer Anti-Rabbit, Dako 1:100) and finished with Dako Liquid DAB+Substrate Chromogen System.
# [2] = system: BT12 and G401 rhabdoid tumor cells; assay: Dose response curves in BT12 and G401 cells; assay type: cell-based; conditions: for sensitivity of rhabdoid tumor cells (dose response curve): BT12 and G401
# Protocol: (§1) Cell Culture. BT12 and CHLA266 cell lines were obtained from the Children's Oncology Group. G401 cell line was obtained from ATCC. TC32 cells were obtained from Dr. Lee Helman (Children's Hospital of Los Angeles). U2OS cells were obtained from Dr. Chand Khanna (Ethos Veterinary Health LLC). All cell lines were grown in RPMI-1640 medium (Invitrogen) supplemented with 10% fetal bovine serum (Gemini Bio-Products), 2 mM L-glutamine (Invitrogen), 100 U/mL penicillin and 100 μg/mL streptomycin (Invitrogen). Cell lines were maintained at less than 80% confluency at 37° C. and 5% CO2 and confirmed to be mycoplasma negative every 6-months.
# (§2) Cell Proliferation Assays. IC50s were calculated with non-linear regression (Graphpad Prism) as the average of three independent experiments performed in duplicate. Cell viability was measured using MTS assay CellTiter96 (Promega) plotted against a standard curve and was confirmed with real-time proliferation assays on the Incucyte Zoom, as previously described (Harlow et al., 2019).
# [3] = multiple species; cited from earlier work
# [4] = system: BT12 and G401 rhabdoid tumor cells; assay: Live cell imaging proliferation and phenotype (Incucyte Zoom); assay type: cell-based; conditions: BT12, EC-8042 200 nM compared with mithramycin 100 nM
# Protocol: as §2
# [5] = system: rhabdoid tumor cell lines (BT12 AT/RT, CHLA266 AT/RT, and G401 RTK); assay: Cell proliferation assay (MTS CellTiter96), rhabdoid tumor vs Ewing sarcoma cells; assay type: cell-based; conditions: three rhabdoid tumor cell lines vs Ewing sarcoma cells, FIG. 1C
# Protocol: as §1, §2
# SP1 = SP1 expression by quantitative PCR and western blot; conditions: BT12 and G401 cells, tolfenamic acid concentrations of FIG. 3G
# Protocol: RNA was subsequently collected using the RNeasy kit and quantified. The RNA was reverse transcribed with the high capacity reverse transcriptase kit (Life Technologies) at 25° C. for 10 minutes, 37° C. for 120 minutes, and 85° C. for 5 minutes. 100 ng cDNA was PCR amplified with 2×SYBR green at 95° C. for 10 min, 95° C. for 15 s, 55° C. for 15s, and 72° C. for 1 min, for 40 cycles. Expression from three independent experiments performed in duplicate was calculated with standard ddCT methods relative to GAPDH and solvent controls.
# Cellular fractionation was performed to separate cytoplasmic and nuclear fractions. Fractionation lysates were lysed with cytoplasmic lysis buffer (25 mM HEPES pH 8.0, 50 mM KCl, and 05% NP-40) supplemented with RNAse (Thermo Fisher Scientific) and protease inhibitors (Sigma-Aldrich) for 15-minutes on ice vortexing every 5-minutes. The nuclei were pelleted at 1500× g for 5 minutes and the cytoplasmic fraction was isolated. The nuclei pellet was lysed with 4% LDS lysis buffer. Following dilution of detergent, protein was quantified with the BCA colorimetric assay (Thermo-Scientific). […] Transfer was run at 20 V and 4° C. overnight. The membranes were blocked with 5% milk in TBS-T (1×TBS, 0.1% Tween-20) and probed with Abcam (H3K27me3), EMD Millipore (SP1), and Cell Signaling (SMARCC1, SMARCE1, H3) antibodies.
# [6] = EC-8042 3-day pump, day 4, vs vehicle
smiles,measurement,setting,value
"CO[C@@H]([C@@H]1Cc2cc3cc(O[C@H]4CC(O[C@H]5CC(O)[C@H](O)C(C)O5)[C@H](O)C(C)O4)c(C)c(O)c3c(O)c2C(=O)[C@H]1O[C@H]1CC(O[C@H]2CC(O[C@H]3CC(O)[C@H](O)C(C)O3)[C@@H](O)C(C)O2)[C@H](O)C(C)O1)[C@@H](O)C(C)=O (stereo partly drawn) [EC-8042, demycarosyl-3D-β-D-ditioxosyl-mithramycin SK]",body weight,"[1]; EC-8042 3-day and 7-day pump, resolved with cessation of drug infusion",minimal transient weight loss
same,differentiation in xenograft tumors (H&E),[1]; EC-8042 3-day or 7-day pump,striking evidence of mesenchymal differentiation
same,median survival,[1]; EC-8042 3-day pump (30 mg/kg),68 days
same,mice with complete cures,[1]; EC-8042 3-day pump cohort,Three
same,H3K27ac staining (IHC),[1]; [6],decrease
same,H3K27me3 staining (IHC),[1]; [6],significantly increase in positive staining
same,cleaved caspase 3 (CC3) staining (IHC),[1]; [6],significantly increase in positive staining
same,human mitochondrial staining (IHC),[1]; [6],decrease
same,median survival,[1]; EC-8042 7-day pump (50 mg/kg),70 days
same,calcification of tumor tissue (micro-CT),"[1]; EC-8042, 7-days after treatment, compared with vehicle",enhances the calcification and mineralization
same,duration of response post end of infusion,"[1]; EC-8042, most mice",~6 weeks
same,time after treatment without tumor recurrence in cured mice,"[1]; EC-8042, several mice",140 days
same,bioluminescent imaging of tumor,"[1]; EC-8042, subset of mice, end of infusion",almost no detectable tumor
same,time to tumor recurrence after treatment end,[1]; EC-8042 continuous infusion,approximately 40 days
same,tumor response,"[1]; EC-8042 continuous infusion, 3-days (30 mg/kg) or 7-days (50 mg/kg), all mice in both cohorts",striking regressions
same,sensitivity of rhabdoid tumor cells (dose response curve),[2],sensitive
same,"concentration at which rhabdoid tumor is sensitive, relative to mithramycin","[2]; in vitro, FIGS. S5A-B",slightly higher concentration as mithramycin
same,toxicity relative to mithramycin,[3],more than 10 times
same,cell phenotype,[4],lipid accumulation and a flattened cell phenotype
COc1cccc2c1C(=O)c1c(O)c3c(c(O)c1C2=O)C[C@@](O)(C(=O)CO)C[C@@H]3O[C@H]1C[C@H](N)[C@H](O)[C@H](C)O1 [doxorubicin],fold less sensitive than Ewing sarcoma cells,[5],4 fold
COc1cc([C@@H]2c3cc4c(cc3[C@@H](O[C@@H]3O[C@@H]5CO[C@@H](C)O[C@H]5[C@H](O)[C@H]3O)[C@H]3COC(=O)[C@H]23)OCO4)cc(OC)c1O [etoposide],fold less sensitive than Ewing sarcoma cells,[5],70 fold
"Cc1c(Cl)cccc1Nc1ccccc1C(=O)O [tolfenamic acid, reference compound]",sensitivity of rhabdoid tumor cells (dose response curve),[2],not sensitive
same,SP1 expression (western blot),SP1,loss of SP1 expression
CCc1c2c(nc3ccc(O)cc13)-c1cc3c(c(=O)n1C2)COC(=O)[C@]3(O)CC [SN38],fold less sensitive than Ewing sarcoma cells,[5],100 fold
